Measured values from article PMC7613620, “Reaction hijacking of tyrosine tRNA synthetase as a whole-of-life-cycle antimalarial strategy” (Science (New York, N.Y.), 2022).

Legend:
H1650 = H1650 cell viability (ATP content); format: cell-based; conditions: Homo sapiens, NCI-H1650, read-out: H1650 IC50(72h); 72 h; ATG7-null cell line
Experimental: 574 H1650 is a human lung cancer derived ATG7-null cell line (49) that can be used to assess effects on targets
576 adenocarcinoma; bronchoalveolar carcinoma). Other cells lines used are: H460 (NCI-H460; human lung;
577 carcinoma; large cell lung cancer; ATCC: HTB-177); and HCT116 (human colon; colorectal carcinoma;
578 ATCC: CCL-247; Lot : 5056139). Each of the cell lines was received from the American Type Culture
579 Collection (ATCC) and passaged twice before freezing. Cells were cultured in the presence or absence of
580 inhibitors and cell viability was assessed by comparing the ATP content in compound-treated wells with
581 that in DMSO-treated wells as previously described (11). […]
585 37°C humidified incubator as adherent semi-confluent monolayers in complete Dulbecco’s Modified Eagle
586 Media (c-DMEM). DMEM (Gibco™, Thermo Fisher Scientific, Australia) was supplemented with 10%

[1] = tested on: P. falciparum 3D7 clones selected with ML901 (D4, F7, B11); experiment: In vitro evolved ML901-resistant 3D7 clones, IC50_72h; format: cell-based, Plasmodium falciparum
Experimental: 537 Screening of nucleoside sulfamates for inhibition of the growth of cultures of P. falciparum (3D7).
538 High throughput screening of compounds from the Takeda library was performed by SCYNEXIS, Inc.
539 Jersey City, NJ, USA. Synchronized (5% sorbitol) ring stage parasites (3D7 strain; 1.5% haematocrit; 0.1
540 – 0.5% starting parasitemia) were incubated in 96-well plates, in triplicate, diluted in DMSO, for 72 h in
541 RPMI 1640 supplemented with 10% human serum, 5% CO2, 5% O2, 90% N2. Infected RBCs were lysed
542 with 10 mM Tris HCl, 5 mM EDTA, 0.008% saponin, 0.08% Triton X-100, pH 7.5, containing SYBR
543 Green. Following incubation for 15-60 min, fluorescence signal was assessed. Sigmoidal dose response
544 curves were generated and the IC50 values determined using CLfit curve fitting software from IDBS […]
549 stage parasites (3D7 strain (43)) were incubated with the inhibitors for 72 h and viability was assessed in […]
638 precipitated with acetonitrile and the remaining compound was assessed by LC-MS/MS in the selected reaction […]
648 0.5% formic acid in methanol and the supernatants were analysed by positive ion electrospray LC-MS for
649 the administered compound. Non-compartmental pharmacokinetic parameters were calculated from […]
660 IGM Genomics Center on the Illumina HiSeq 2500 in RapidRun mode to generate 100bp paired-end reads.

[2] = target: NEDD8-activating enzyme (NAE) (Homo sapiens, UniProt Q8TBC4); experiment: E1-E2 transthiolation HTRF assay, NAE; format: biochemical
NEDD8-activating enzyme (NAE), sequence (Q8TBC4 whole entry): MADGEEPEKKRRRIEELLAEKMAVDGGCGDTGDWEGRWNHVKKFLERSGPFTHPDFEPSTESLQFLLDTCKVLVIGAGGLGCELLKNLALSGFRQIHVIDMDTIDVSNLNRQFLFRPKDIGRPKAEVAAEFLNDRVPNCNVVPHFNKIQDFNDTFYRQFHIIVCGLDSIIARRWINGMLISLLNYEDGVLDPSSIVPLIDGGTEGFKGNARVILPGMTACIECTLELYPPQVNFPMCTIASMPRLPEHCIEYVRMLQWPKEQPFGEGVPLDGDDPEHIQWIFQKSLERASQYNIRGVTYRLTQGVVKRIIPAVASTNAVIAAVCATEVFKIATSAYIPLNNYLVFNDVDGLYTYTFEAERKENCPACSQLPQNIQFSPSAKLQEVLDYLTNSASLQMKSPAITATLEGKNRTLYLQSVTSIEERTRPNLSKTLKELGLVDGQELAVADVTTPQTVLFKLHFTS
NEDD8-activating enzyme (NAE), sequence (Q13564 whole entry partner): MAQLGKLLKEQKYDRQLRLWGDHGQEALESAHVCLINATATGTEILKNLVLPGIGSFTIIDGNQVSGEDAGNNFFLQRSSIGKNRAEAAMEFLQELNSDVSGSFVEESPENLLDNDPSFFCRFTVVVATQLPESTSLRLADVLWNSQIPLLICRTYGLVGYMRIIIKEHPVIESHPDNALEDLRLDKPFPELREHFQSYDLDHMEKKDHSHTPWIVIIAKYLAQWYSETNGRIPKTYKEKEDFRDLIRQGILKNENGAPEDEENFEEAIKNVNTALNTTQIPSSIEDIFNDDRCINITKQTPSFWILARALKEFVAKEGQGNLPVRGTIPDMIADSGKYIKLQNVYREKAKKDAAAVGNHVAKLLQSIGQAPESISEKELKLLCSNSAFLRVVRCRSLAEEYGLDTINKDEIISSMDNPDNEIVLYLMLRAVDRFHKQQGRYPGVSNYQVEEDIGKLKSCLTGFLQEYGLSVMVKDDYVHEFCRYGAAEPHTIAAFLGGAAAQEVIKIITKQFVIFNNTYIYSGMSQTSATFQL
Text: 592 E1-E2 Transthiolation Assays
593 An Homogeneous Time-Resolved Fluorescence (HTRF) enzyme assay was employed to evaluate
594 compound activity against ATG7 as previously described (11). In this assay, a Flag-tagged ATG8 homolog
595 (GABA type A receptor-associated protein; GABARAP) is activated by ATG7 and then transthiolated to a
596 GST-tagged E2 (ATG3). The product of the enzyme reaction, Flag-GABARAP-ATG3-GST, is quantified
597 by measuring FRET between Europium-Cryptate labelled monoclonal anti-Flag M2 (CisBio International,
598 Cat# 61FG2KLB) and PHYCOLINK goat anti-GST allophycocyanin (Prozyme, PJ252p1). The activation
599 and transthiolation of ubiquitin by Ubiquitin Activating Enzyme, activation and transthiolation of NEDD8
600 by NEDD8 Activating Enzyme. […]
606 Compounds were incubated with mature stage V gametocytes ([…], kind gift from Professor Chris Janse
607 at Leiden University Medical Center (LUMC), the Netherlands) for 48 hours in 384 well plates before
608 gamete formation was triggered by a drop in temperature and addition of xanthurenic acid. […]
611 Multiple data sets using different gametocyte cultures were collected on each of two separate days.
613 Activity against exoerythrocytic stages
614 Primary human hepatocytes (H1500.H15B+ Lot No. HC10-10 Cryopreserved human hepatocytes) […]

Nc1ncnc2c1c(OC(F)F)nn2[C@@H]1O[C@H](COS(N)(=O)=O)[C@@H](O)[C@H]1O [ML901]
IC50 (H1650): 10700 nM | reduced sensitivity of selected parasites ([1]; 3D7 line under increasing compound concentrations over 4 months, versus parent): 10 fold | IC50 ([1]; Plasmodium falciparum, 3D7, read-out: IC50_72h, ML901-selected resistant clones): 28 nM | IC50 [2]: > 1000 nM
